Test results from patent US20050147527A1, “Microbial destruction using a gas phase decontaminant” (priority 2004, published 2005).
Several values for one entry are separate records, joined by “and”; a condition that tells them apart may be missing. Equal entries are not always repeated. Where two headings read alike, the source gives them in different places.

Legend:
[1] = system: streptomycin-resistant S. choleraesuis; conditions: Radishes; dispense time 3 min; 180° F.; 18 inch Hg; wait 0 min
Method: (§1) The following experiments were performed using a system in accordance with the present invention. Food crops were pruned of inedible roots, leaves, etc., and weighed. A given food crop was then inoculated with a single challenge microorganism. All challenge microorganisms were purchased from ATCC as streptomycin-resistant strains-Esherichia coli (E. coli), Staphylococcus aureus (S. aureus), and Salmonella choleraesuis (S. choleraesuis). […] After inoculation, the crops were left to dry for 30 minutes to 1 hour. The crops were then placed in the Ziploc® bag and into the vacuum chamber. […] Parameters such as vacuum pressure, dispensing time, and sterilization wait time were varied in order to arrive at some conclusion concerning the optimum conditions for effective disinfection of the food crops. After the disinfection cycle had ended, the crops were neutralized in 50 mL of 10% thiosulfate solution contained in a sterile mastication bag.
(§2) The bag was then placed in a masticator and pulverized for 2 minutes. The liquid contents were then serially diluted and plated onto the appropriate agar medium. The plates were incubated at 37° C. for 24 hours and plate counts were performed. […] A log reduction in terms of CFU/g was calculated by subtracting the plate counts of the disinfected food from that of its respective control, as shown in Table 1.
(§3) Lettuce was used as the food crop while streptomycin-resistant E. coli was chosen as the challenge microorganism. […] Each food crop was inoculated with streptomycin-resistant strains of E. coli, S. aureus, and S. choleraesuis in separate experiments and 3 minutes was used as the dispense time in every run.

[2] = system: streptomycin-resistant S. aureus; conditions: 180° F.; for Log Post-Disinfection (CFU/g) / Log Reduction (CFU/g): DT 18 min
Method: as §1, §2, §3

[3] = system: streptomycin-resistant E. coli; conditions: 180° F.; for Log Post-Disinfection (CFU/g) / Log Reduction (CFU/g): DT 18 min
Method: as §1, §2, §3

[4] = system: E. coli, S. aureus, S. choleraesuis
Bacillus subtilis spores = system: Bacillus subtilis spores
Method: A protocol analogous to that used for the food crops was employed for spore testing on stainless steel coupons. 3-1.75 cm×3.75 cm stainless steel coupons were each inoculated (front & back) with a total of 100 μL of Bacillus subtilis spores. The spores were allowed to dry and the three coupons were aseptically transferred to a Ziploc® bag. The remaining protocol used was similar to that of the food crops except that each coupon was neutralized in 8 mL of 10% thiosulfate solution and each coupon's solution was serially diluted and plated onto media.

[5] = Lettuce, VP 15 inch Hg, SW 15 min
[6] = Radishes, VP 15 inch Hg, SW 30 min
[7] = Radishes, VP 20 inch Hg, SW 5 min
[8] = Radishes, VP 20 inch Hg, SW 10 min
[9] = Radishes, VP 20 inch Hg, SW 15 min
[10] = Radishes, dispense time 3 min, 18 inch Hg, wait 0 min
[11] = Carrots, VP 15 inch Hg, SW 10 min
[12] = Carrots, VP 15 inch Hg, SW 15 min
[13] = Carrots, VP 15 inch Hg, SW 20 min
[14] = Carrots, VP 15 inch Hg, SW 30 min
[15] = Carrots, VP 17 inch Hg, SW 5 min
[16] = Carrots, VP 18 inch Hg, SW 10 min
[17] = Lettuce, VP 15 inch Hg, SW 10 min
[18] = Radishes, VP 15 inch Hg, SW 10 min
[19] = Radishes, VP 15 inch Hg, SW 15 min
[20] = Table 3, Lettuce, dispense time 3 min, 18 inch Hg, wait 0 min
[21] = stainless steel coupons, 12 minute dispense time, 180° F., 18 inch Hg, wait 0 min

Structure (SMILES): OO [hydrogen peroxide]
- Log10 Post-Disinfection (CFU/g) [1]: 1.67 CFU/g and 1.95 CFU/g and 1.82 CFU/g
- Log Post-Disinfection (CFU/g) [2, 5]: 0 CFU/g
- Log Reduction (CFU/g) [2, 5]: 6.81 CFU/g
- Log Post-Disinfection (CFU/g) [2, 6]: 0 CFU/g
- Log Reduction (CFU/g) [2, 6]: 6.33 CFU/g
- Log Post-Disinfection (CFU/g) [2, 7]: 0 CFU/g
- Log Reduction (CFU/g) [2, 7]: 6.09 CFU/g
- Log Post-Disinfection (CFU/g) [2, 8]: 0 CFU/g
- Log Reduction (CFU/g) [2, 8]: 6.09 CFU/g
- Log Post-Disinfection (CFU/g) [2, 9]: 1.61 CFU/g
- Log Reduction (CFU/g) [2, 9]: 4.48 CFU/g
- Log10 Post-Disinfection (CFU/g) [2, 10]: 0 CFU/g
- Log10 Reduction (CFU/g) [2, 10]: ≧5.25 CFU/g
- Log Post-Disinfection (CFU/g) [3, 11]: 0 CFU/g
- Log Reduction (CFU/g) [3, 11]: 4.90 CFU/g
- Log Post-Disinfection (CFU/g) [3, 12]: 0 CFU/g
- Log Reduction (CFU/g) [3, 12]: 4.90 CFU/g
- Log Post-Disinfection (CFU/g) [3, 13]: 0 CFU/g
- Log Reduction (CFU/g) [3, 13]: 5.45 CFU/g
- Log Post-Disinfection (CFU/g) [3, 14]: 0 CFU/g
- Log Reduction (CFU/g) [3, 14]: 4.90 CFU/g
- Log Post-Disinfection (CFU/g) [3, 15]: 0 CFU/g
- Log Reduction (CFU/g) [3, 15]: 5.45 CFU/g
- Log Post-Disinfection (CFU/g) [3, 16]: 0 CFU/g
- Log Reduction (CFU/g) [3, 16]: 5.45 CFU/g
- Log Post-Disinfection (CFU/g) [3, 17]: 0 CFU/g
- Log Reduction (CFU/g) [3, 17]: 6.38 CFU/g
- Log Post-Disinfection (CFU/g) [3, 5]: 1.93 CFU/g
- Log Reduction (CFU/g) [3, 5]: 4.31 CFU/g
- Log Post-Disinfection (CFU/g) [3, 18]: 2.85 CFU/g
- Log Reduction (CFU/g) [3, 18]: 2.95 CFU/g
- Log Post-Disinfection (CFU/g) [3, 19]: 3.73 CFU/g
- Log Reduction (CFU/g) [3, 19]: 2.07 CFU/g
- Log10 Post-Disinfection (CFU/g) [3, 20]: 0 CFU/g
- Log10 Reduction (CFU/g) [3, 20]: ≧6.23 CFU/g
- log reductions for every combination of food crop and microbial challenge (Table 3) ([4]; 3 minutes dispense time): greater than 3
- average log reduction of all of the runs shown in Table 1 ([4]; all food crops, microbial challenges and parameters of Table 1): 4.63
- log reduction (lowest over all runs of Table 1) ([4]; no matter the food crop, microbial challenge or disinfection parameters): ≥ 2
- Log10 Post-Disinfection (CFU/cm^2) (Bacillus subtilis spores; [21]): 0 CFU/cm^2
- Log10 Reduction (CFU/cm^2) (Bacillus subtilis spores; [21]): 5.42 CFU/cm^2
- eradication of spores (Bacillus subtilis spores; within a 12 minute dispense time): completely eradicate spores
